Laboratory results as given in ChEMBL document CHEMBL6115007, “Synthesis and in vitro and in vivo evaluation of novel bivalent quinolines as antitumor agents via targeting autophagy in cervical cancer” (Eur J Med Chem, 2025).
Active and inactive are the calls of the source. No cut-off for these calls is given here.

Legend:
HeLa [1] = assay: Effect on PARP expression level in p53 deficient human HeLa cells at 0.6 to 1.2 uM incubated for 24 hrs by Western blot analysis; type: functional, cell-based; details: dose 0.6-1.2 µM
Ca-Ski [2] = assay: Induction of autophagy in ATG7 deficient human Ca Ski cells assessed as increase in LC3-II expression at 0.5 to 1 uM incubated for 24 hrs by Western blot analysis; type: functional, cell-based; details: dose 0.5-1 µM
SiHa [3] = assay: Antiproliferative activity against human SiHa cells assessed as inhibition of cell growth at 0.4 to 1.6 uM by CCK8 assay; type: functional, cell-based; details: dose 0.4-1.6 µM, time 6.0 day
[4] = Toxicity in female BALB/c mouse xenografted with human HeLa cells assessed as effect on BUN level at 4 to 8 mg/kg administered every four days and measured after 26 days; type: organism-based; details: in vivo, 624 h, dose 4-8 mg/kg, time 26 day
Ca-Ski [5] = assay: Induction of apoptosis in human Ca Ski cells assessed as early apoptotic cells at 1 uM preincubated with Z-VAD-FMK for 1 hrs followed by compound addition and measured after 24 hrs by Annexin V-FITC/PI staining based flow cytometric analysis (reference value: 2.91 %); type: functional
HeLa [6] = assay: Effect on caspase 3 expression level in Bax deficient human HeLa cells at 0.6 to 1.2 uM incubated for 24 hrs by Western blot analysis; type: functional, cell-based; details: dose 0.6-1.2 µM
SiHa [7] = assay: Induction of morphological changes in human SiHa cells assessed as increase in inflated cell appearance at 0.5 to 2 uM by microphotographic analysis; type: functional, cell-based; details: dose 0.5-2 µM
Ca-Ski [8] = assay: Effect on PARP expression level in p53 deficient human Ca Ski cells at 0.5 to 1 uM incubated for 24 hrs by Western blot analysis; type: functional, cell-based; details: dose 0.5-1 µM
HeLa [9] = assay: Induction of autophagy in ATG5 deficient human HeLa cells assessed as increase in LC3-II expression at 0.6 to 1.2 uM incubated for 24 hrs by Western blot analysis; type: functional, cell-based; details: dose 0.6-1.2 µM
Ca-Ski [10] = assay: Induction of apoptosis in human Ca Ski cells assessed as necrotic cells at 1 uM preincubated with Z-VAD-FMK for 1 hrs followed by compound addition and measured after 24 hrs by Annexin V-FITC/PI staining based flow cytometric analysis (reference value: 1.54 %); type: functional
HeLa [11] = assay: Induction of apoptosis in human HeLa cells assessed as viable cells at 1.2 uM preincubated with Z-VAD-FMK for 1 hrs followed by compound addition and measured after 24 hrs by Annexin V-FITC/PI staining based flow cytometric analysis (reference value: 95.8 %); type: functional; details: read-out: Activity
HeLa [12] = assay: Antitumor activity against human HeLa cells xenografted in female BALB/c mouse assessed as reduction in tumor growth at 4 to 8 mg/kg administered every four days and measured after 26 days; type: functional, organism-based; details: dose 4-8 mg/kg, time 26.0 day
HeLa [13] = assay: Inhibition of cell migration in human HeLa cells at 0.6 to 1.2 uM measured after 48 hrs by cell scratch assay; type: functional, cell-based; details: dose 0.6-1.2 µM
HeLa [14] = assay: Antitumor activity against human HeLa cells xenografted in female BALB/c mouse assessed as reduction in Ki67 expression in tumor at 4 to 8 mg/kg administered every four days and measured after 26 days by immunohistochemical analysis; type: functional, organism-based; details: dose 4-8 mg/kg, time 26.0 day
HeLa [15] = assay: Induction of apoptosis in human HeLa cells assessed as early apoptotic cells at 0.6 uM incubated for 24 hrs by Annexin V-FITC/PI staining based flow cytometric analysis (reference value: 0.97 %); type: functional
Ca-Ski [16] = assay: Inhibition of colony formation in human Ca Ski cells assessed as reduction in colony forming unit count at 0.1 to 0.4 uM incubated for 24 hrs by crystal violet staining based analysis; type: functional, cell-based; details: dose 0.1-0.4 µM
Ca-Ski [17] = assay: Induction of autophagy in human Ca Ski cells transfected with mRFP-GFP-LC3 plasmid assessed as stable RFP fluorescence at 25 uM incubated for 24 hrs by DAPI staining based fluorescence confocal microscopic analysis; type: functional, cell-based
HeLa [18] = assay: Antiproliferative activity against ATG7 deficient human HeLa cells assessed as inhibition of cell viability incubated for 24 hrs by CCK8 assay; type: functional, cell-based
HeLa [19] = assay: Effect on SLC7A11 protein expression level in human HeLa cells at 0.6 uM incubated for 24 hrs by Western blot analysis; type: functional, cell-based
Ca-Ski [20] = assay: Effect on cleaved caspase 3 expression level in Bax deficient human Ca Ski cells at 0.5 to 1 uM incubated for 24 hrs by Western blot analysis; type: functional, cell-based; details: dose 0.5-1 µM

**Q.** For `COc1cccc(Nc2ccnc3cc(OCCCCCOc4ccc5c(Nc6cccc(OC)c6)ccnc5c4)ccc23)c1`, which Activity (HeLa [1]) is on record?
**A.** inactive

**Q.** What about the Activity (Ca-Ski [2]) of the same compound?
**A.** inactive

**Q.** What about the Activity (SiHa [3]) of the same compound?
**A.** Time-dependent-effect

**Q.** What about the Activity [4] of the same compound?
**A.** Non-toxic

**Q.** And the Activity (Ca-Ski [5])?
**A.** 5.56%

**Q.** And the Activity (HeLa [6])?
**A.** inactive

**Q.** And the Activity (SiHa [7])?
**A.** Active

**Q.** And the Activity (Ca-Ski [8])?
**A.** inactive

**Q.** What about the Activity (HeLa [9]) of the same compound?
**A.** inactive

**Q.** What about the Activity (Ca-Ski [10]) of the same compound?
**A.** 1.7%

**Q.** What about the viability at 1.2 µM (HeLa [11]) of the same compound?
**A.** 93.6%

**Q.** What about the Activity (HeLa [12]) of the same compound?
**A.** Active

**Q.** What about the inhibition (HeLa [13]) of the same compound?
**A.** Active

**Q.** And the Activity (HeLa [14])?
**A.** Active

**Q.** What about the Activity (HeLa [15]) of the same compound?
**A.** 0.8%

**Q.** And the inhibition (Ca-Ski [16])?
**A.** Active

**Q.** What about the Activity (Ca-Ski [17]) of the same compound?
**A.** Active

**Q.** And the IC50 (HeLa [18])?
**A.** 2310 nM

**Q.** What about the Activity (HeLa [19]) of the same compound?
**A.** Moderate_effect

**Q.** And the Activity (Ca-Ski [20])?
**A.** inactive
